{"source": "patent US20080234368A9", "about": "“Therapeutic compositions and methods of use” (Trustees of Dartmouth College, priority 1998, published 2008)", "key": {"COX-2": {"tested_on": "COX-2", "assay": "TPA-induced COX-2 in 184B5/HER mammary epithelial cells", "type": "cell-based, human", "details": "184B5/HER cells", "excerpt": "These cells were selected because of the importance of stromal cell COX-2 in colon carcinogenesis (Oshima et al., 1996). […] Although CDDO effectively blocks the induction of COX-2 by agents such as IFN-γ, LPS, TNF-α, and IL-1, CDDO is ineffective when TPA is used as the inducer of COX-2. This has been seen in 18Co cells, as well as in the human mammary epithelial cell line, 184B5/HER (Zhai et al., 1993)."}, "[1]": {"tested_on": "NO production in primary mouse macrophages", "assay": "NO production induced by LPS and IFN-γ in primary mouse macrophages (FIG. 7)", "type": "cell-based"}, "iNOS mRNA": {"tested_on": "iNOS mRNA", "assay": "Northern blot for iNOS mRNA in RAW 264.7 cells", "type": "cell-based, mouse", "details": "CDDO 10^−6 M, RAW 264.7, 12 h", "experimental": "(§1) FIG. 14(A) illustrates Western blots; primary mouse macrophages; IFN-γ, 10 ng/ml; LPS, 2 ng/ml were added to cultures together with triterpenoids or dexamethasone (concentrations shown as […]); cells were harvested at 12 h. FIG. 14(B) illustrates Northern blots, RAW 264.7 macrophage-like cell line. IFN-γ, 10 ng/ml; LPS, 1 ng/ml; TNF-α, 10 ng/ml, were added to cultures together with CDDO or dexamethasone. RNA prepared after 12 h; GAPDH used as a loading control. FIG. 14(C) illustrates suppression of production of NO and PGEF in primary macrophages. For NO studies, cells were treated with IFN-γ, 10 ng/ml, together with CDDO (M), dexamethasone (O), TP-82 (□), or oleanolic acid (A). After 48 h, supernatants were analyzed for NO by the Griess reaction. For PGEF studies, cells were treated with IFN-γ, 5 ng/ml, and LPS, 5 ng/ml, together with the same set of inhibitors. After 48 h, PGE was measured in supernatants by immunoassay. Control values (no inhibition) for NO and PGE2 were 4.7 nmol/[…] and 2.2 ng/ml/2×10^5 cells, respectively. FIGS. (14D) and (14E) illustrate (human colon myofibroblasts) ^18Co cells grown in MEM/10% FBS; other methods are the same as reported above for macrophages. FIG. 14(D) illustrates Northern blots showing dose-response for suppression of COX-2 mRNA after induction with IL-1β (30 pg/ml). CDDO was added together with IL-1. […]"}, "[2]": {"tested_on": "AsPc-1 pancreatic carcinoma cells", "assay": "Inhibition of cell proliferation (3H-thymidine incorporation)", "type": "cell-based, human", "details": "AsPc-1 (Smad4/DPC4 mutation); 3 or 4 days, 3H-thymidine 2 h", "experimental": "All cells were obtained from ATCC, except as noted. They were grown under standard conditions in either DMEM, DMEM/F 12, or RPMI 1640 media plus 5-10% FBS. CDDO, over the dose range 10^−6 to 10^−10 M, was added to cultures at the time of seeding. Three or 4 days later, cells were treated with ^3H-thymidine for 2 h (12 h in the case of leukemia cells), and then incorporation was measured. “ER” means estrogen receptor.\n^aThese cells all have […] mutations (Schutte et al. 1996)."}, "COX-2 mRNA [3]": {"tested_on": "COX-2 mRNA", "assay": "Northern blot for COX-2 mRNA in RAW 264.7 cells", "type": "cell-based, mouse", "details": "CDDO 10^−6 M, RAW 264.7, 12 h", "experimental": "as §1"}, "[4]": {"tested_on": "LPS-induced NO production in rat microglia", "assay": "LPS-induced NO production in primary microglial cultures", "type": "cell-based", "details": "for inhibition of LPS induction of NO production: LPS 5 ng/ml, 18 h", "experimental": "(§2) For the following examples, stock solutions of CDDO (0.01 M) were made in DMSO and aliquots frozen at −20° C. Serial dilutions were made in DMSO before addition to cell culture media. Primary rat microglia and hippocampal neurons were isolated and cultured as described by Flaris et al., 1993 and Ren and Flanders, 1996.\n(§3) The roles of inflammatory mediators, as well as aberrant programs for cell survival and apoptosis, in the genesis of cancer and Alzheimer's Disease are now undergoing serious investigation (McGeer and McGeer, 1995; Merrill and Benveniste, 1996; Akama et al., 1998). CDDO was tested in this example as a suppressor of de novo formation of iNOS in cultured microglia (the resident macrophages of the brain), as well as its ability to protect cultured hippocampal neurons from cell death induced by β-amyloid. […] Thus, LPS (5 ng/ml) induced iNOS in primary microglial cultures and caused a 27-fold increase in production of NO within 18 h. Concomitant treatment of these cultures with CDDO at either 10^−6 or 10 ^−7 M inhibited this induction by 73% and 52%, respectively. We have also explored the possibility that CDDO can protect cultured hippocampal neurons from cell death induced by the peptide β-amyloid, since NO has been implicated (Akama et al., 1998) in the neurotoxic actions of this peptide which is central to the pathogenesis of Alzheimer's disease (Selkoe, 1997). Hippocampal neurons were isolated and cultured from 16 day rat embryos and then treated with CDDO for 24 h before adding the β-amyloid peptide fragment, amino acids 25-35, at a final concentration of 10 μM. This dosing with β-amyloid alone caused death of more than half of the neurons in the culture within 24 h, as measured by MTT assay."}, "rat hippocampal neurons": {"tested_on": "rat hippocampal neurons", "assay": "Protection of hippocampal neurons from β-amyloid induced cell death, MTT assay", "type": "cell-based", "experimental": "as §2, §3"}, "COX-2 mRNA [5]": {"tested_on": "COX-2 mRNA", "assay": "Northern blot for IL-1β-induced COX-2 mRNA in 18Co colon myofibroblasts", "type": "cell-based, human", "details": "18Co cells, IL-1β 30 pg/ml", "experimental": "as §1"}, "[6]": {"tested_on": "NRP-152 non-malignant prostate epithelium cells", "assay": "Suppression of thymidine incorporation, dose-response (FIG. 13)", "type": "cell-based, rat", "details": "NRP-152, 72 h; oleanolic acid statement at concentrations of 1 μM or less", "experimental": "Inhibitors of cell proliferation are known to be useful chemopreventive and chemotherapeutic agents. CDDO was tested against a wide variety of cells derived from highly aggressive leukemias and carcinomas, as well as from non-neoplastic tissues. NRP-152 cells were grown as described in Danielpour et al., 1994. MCF-7 cells were grown in phenol red-free RPMI 1640/10% charcoal-stripped FBS with added 17-β-estradiol (10 μM). Triterpenoids were added at the time of plating, and 72 h later ^3H-thymidine (1 μCi/well) was added for the final 2 h of incubation. Incorporation of thymidine was measured after cells were precipitated with TCA (10%), washed, and solubilized. The symbols used in FIG. 13 are CDDO, ▪; TP-82, ◯; and oleanolic acid; ●."}, "[7]": {"tested_on": "PGE2 production in 18Co cells", "assay": "PGE2 in culture medium of IL-1β-treated 18Co cells", "type": "cell-based, human", "details": "IL-1β 30 pg/ml", "experimental": "as §1"}}, "note": "pIC50: −log10 of the molar value.", "data": [{"smiles": "CC1(C)CC[C@]2(C(=O)O)CC[C@]3(C)[C@H](C(=O)C=C4[C@@]5(C)C=C(C#N)C(=O)C(C)(C)[C@@H]5CC[C@]43C)[C@@H]2C1", "note": "[Compound 6, 2-cyano-3,12-dioxoolean-1,9-dien-28-oic acid]", "values": [{"measurement": "blocking of COX-2 induction with TPA as inducer", "setting": "COX-2", "value": "ineffective"}, {"measurement": "activity on LPS and IFN-γ induced NO production compared with dexamethasone (FIG. 7)", "setting": "[1]", "value": "favorable to that of dexamethasone"}, {"measurement": "lowering of iNOS mRNA expression", "setting": "iNOS mRNA", "value": "greater than 75%"}, {"measurement": "pIC50", "setting": "[2]", "value": 7.00}, {"measurement": "lowering of COX-2 mRNA expression", "setting": "COX-2 mRNA [3]", "value": "greater than 75%"}, {"measurement": "inhibition of LPS induction of NO production", "setting": "[4]; CDDO 10^−6 M", "value": 73, "unit": "%"}, {"measurement": "inhibition of LPS induction of NO production", "setting": "[4]; CDDO 10^−7 M", "value": 52, "unit": "%"}, {"measurement": "activity on LPS-induced NO production compared with dexamethasone (FIG. 2)", "setting": "[4]; rat microglia cells", "value": "favorable to that of dexamethasone"}, {"measurement": "protection against β-amyloid induced cell death", "setting": "rat hippocampal neurons; CDDO 10^−7 M, 24 h pretreatment, β-amyloid 25-35 10 μM, 24 h", "value": "totally prevented this cell death"}, {"measurement": "protection against β-amyloid induced cell death", "setting": "rat hippocampal neurons; CDDO 10^−8 M, 24 h pretreatment, β-amyloid 25-35 10 μM, 24 h", "value": "totally prevented this cell death"}, {"measurement": "protection against β-amyloid induced cell death", "setting": "rat hippocampal neurons; doses as low as 10^−10 M", "value": "some protective activity"}, {"measurement": "induction of COX-2 mRNA", "setting": "COX-2 mRNA [5]", "value": "blocked induction"}, {"measurement": "suppressing thymidine incorporation", "setting": "[6]", "value": "highly active in the nanomolar range"}, {"measurement": "PGE2 levels in the culture medium", "setting": "[7]", "value": "lowering of PGE2 levels"}]}]}
